Data on 21 molecules can be found in patent publication US11439707B2, “Hypocrellin derivative substituted both in a peri-position and in 2-position by amino, preparation method, and application thereof” (priority 2017, dated 2022).

Data set [1] in a line: absorption spectrum (maximum absorption wavelength, molar extinction coefficient). In kind it is physicochemical.
Data set [2] in a line: singlet oxygen efficiency test, reference rose bengal. The format is physicochemical.

`COc1c(NC(CCC(=O)O)C(=O)O)c2c(=O)cc(OC)c3c4c(OC)cc(=O)c5c(O)c(NC(CCC(=O)O)C(=O)O)c6c(c(c1C(C(C)=O)C(C)=C6)c23)c54` (stereo not drawn) [HB-28b]: in data set [1], the maximum absorption wavelength was determined as 620 nm and the molar extinction coefficient is 21,000 M^−1cm^−1. The same molecule came in with a singlet oxygen yield in data set [2] of 19%.

For `COc1c2c3c4c(c(NCCS(=O)(=O)OC)c(=O)c5c(NCCS(=O)(=O)OC)cc(OC)c(c6c(OC)cc(O)c(c1=O)c63)c54)C=C(C)C2C(C)=O` (stereo not drawn) [HB-12c], in data set [1], the maximum absorption wavelength was found to be 622 nm and the molar extinction coefficient is reported as 23,500 M^−1cm^−1. The molecule further showed a singlet oxygen yield in data set [2] of 22%.

Take `COc1c2c3c4c(c(NC5(CO)CC5)c(=O)c5c(NC6(CO)CC6)cc(OC)c(c6c(OC)cc(O)c(c1=O)c63)c54)C=C(C)C2C(C)=O` (stereo not drawn) [HB-35c]: in data set [1], the maximum absorption wavelength was determined as 619 nm and the molar extinction coefficient is reported as 32,500 M^−1cm^−1. The molecule also registered a singlet oxygen yield in data set [2] of 34%.

`COc1c2c3c4c(c(NC(CC(N)=O)C(=O)O)c(=O)c5c(O)cc(OC)c(c6c(OC)cc(NC(CC(N)=O)C(=O)O)c(c1=O)c63)c54)C=C(C)C2C(C)=O` (stereo not drawn) [HB-26d]: in data set [1], the maximum absorption wavelength is given as 622 nm and the molar extinction coefficient was 20,500 M^−1cm^−1. The molecule further registered a singlet oxygen yield in data set [2] of 16%.

For the molecule `COCCOCCOCCOCCOCCOCCOCCOCCOCCOCCOCCOCCOCCC(=O)OC1CCC(Nc2c3c4c5c(c(OC)c(=O)c6c(O)cc(OC)c(c7c(OC)cc(NC8CCC(OC(=O)CCOCCOCCOCCOCCOCCOCCOCCOCCOCCOCCOCCOCCOC)CC8)c(c2=O)c74)c65)C(C(C)=O)C(C)=C3)CC1` (stereo not drawn) [HB-17c-PEG12], in data set [1], the maximum absorption wavelength came out at 632 nm and the molar extinction coefficient is 33,500 M^−1cm^−1. Besides, the singlet oxygen yield in data set [2] came out at 38%.

Regarding `COCCOC(=O)C1CCCCC1Nc1c(NC2CCCCC2C(=O)OCCOC)c2c(=O)cc(OC)c3c4c(OC)cc(=O)c5c(O)c(OC)c6c(c(c1C=C(C)C6C(C)=O)c23)c54` (stereo not drawn) [HB-16a-PEG1], in data set [1], the maximum absorption wavelength was determined as 624 nm and the molar extinction coefficient was 30,500 M^−1cm^−1. Moreover, the singlet oxygen yield in data set [2] amounted to 32%.

In the case of `COCCOCCNc1c(NCCCC(=O)O)c2c3c4c(c(OC)c(O)c5c(=O)cc(OC)c(c6c(OC)cc(=O)c1c63)c54)C(C(C)=O)C(C)=C2` (stereo not drawn) [HB-47a-PEG1], in data set [1], the maximum absorption wavelength turned out to be 622 nm and the molar extinction coefficient is on record as 30,500 M^−1cm^−1. The molecule further registered a singlet oxygen yield in data set [2] of 30%.

For the molecule `COc1c2c3c4c(c(NC(CC(N)=O)C(=O)O)c(=O)c5c(NC(CC(N)=O)C(=O)O)cc(OC)c(c6c(OC)cc(O)c(c1=O)c63)c54)C=C(C)C2C(C)=O` (stereo not drawn) [HB-26c], in data set [1], the maximum absorption wavelength is 614 nm and the molar extinction coefficient was 21,500 M^−1cm^−1. Moreover, the singlet oxygen yield in data set [2] is 21%.

For `CCCCCCNc1c2c3c4c(c(OC)c(=O)c5c(NCCCCCC)cc(OC)c(c6c(OC)cc(O)c(c1=O)c63)c54)CC(C)=C2` [HC-34d], in data set [1], the maximum absorption wavelength is 628 nm and the molar extinction coefficient is listed as 32,000 M^−1cm^−1. The singlet oxygen yield in data set [2] stood at 32%.

Consider `COc1c(O)c2c(=O)cc(OC)c3c4c(OC)cc(=O)c5c(NCCS(=O)(=O)OC)c(NCCS(=O)(=O)OC)c6c(c(c1C(C(C)=O)C(C)=C6)c23)c54` (stereo not drawn) [HB-12a], for which, in data set [1], the maximum absorption wavelength amounted to 621 nm and the molar extinction coefficient was 23,500 M^−1cm^−1. For the same molecule, in data set [2], the singlet oxygen yield worked out at 20%.

With `COc1c(O)c2c(=O)cc(OC)c3c4c(OC)cc(=O)c5c(NCCCC(=O)NCCS(=O)(=O)O)c(NCCCC(=O)NCCS(=O)(=O)O)c6c(c(c1CC(C)=C6)c23)c54` [HC-8a-NH—C2-SO3H], in data set [1], the maximum absorption wavelength came to 620 nm and the molar extinction coefficient is 31,000 M^−1cm^−1. Moreover, the singlet oxygen yield in data set [2] was found to be 32%.

Consider `COc1c(O)c2c(=O)cc(OC)c3c4c(OC)cc(=O)c5c(NC6CCC(O)CC6)c(NC6CCC(O)CC6)c6c(c(c1C(C(C)=O)C(C)=C6)c23)c54` (stereo not drawn) [HB-17a], for which, in data set [1], the maximum absorption wavelength was 617 nm and the molar extinction coefficient is recorded as 25,000 M^−1cm^−1. The same molecule displayed a singlet oxygen yield in data set [2] of 22%.

Take `CCNNc1c2c3c4c(c(OC)c(=O)c5c(O)cc(OC)c(c6c(OC)cc(NNCC)c(c1=O)c63)c54)C(C(C)=O)C(C)=C2` (stereo not drawn) [HB-36c]: in data set [1], the maximum absorption wavelength was determined as 621 nm and the molar extinction coefficient was 33,500 M^−1cm^−1. The singlet oxygen yield in data set [2] is given as 35%.

With `COC(=O)C1CCC(CNc2c3c4c5c(c(OC)c(=O)c6c(O)cc(OC)c(c7c(OC)cc(NCC8CCC(C(=O)OC)CC8)c(c2=O)c74)c65)C(C(C)=O)C(C)=C3)CC1` (stereo not drawn) [HB-13c-AcE], in data set [1], the maximum absorption wavelength was found to be 621 nm and the molar extinction coefficient was 28,500 M^−1cm^−1. For the same molecule, the singlet oxygen yield in data set [2] is reported as 30%.

Consider `COCCOCCOCCOCCOC(=O)C1CCC(CNc2c3c4c5c(c(OC)c(=O)c6c(O)cc(OC)c(c7c(OC)cc(NCC8CCC(C(=O)OCCOCCOCCOCCOC)CC8)c(c2=O)c74)c65)CC(C)=C3)CC1` (stereo not drawn) [HC-13c-PEG4], for which, in data set [1], the maximum absorption wavelength came out at 632 nm and the molar extinction coefficient is on record as 31,500 M^−1cm^−1. Further, the singlet oxygen yield in data set [2] is 36%.

In the case of `COc1c(NCCS(=O)(=O)OC)c2c(=O)cc(OC)c3c4c(OC)cc(=O)c5c(O)c(NCCS(=O)(=O)OC)c6c(c(c1C(C(C)=O)C(C)=C6)c23)c54` (stereo not drawn) [HB-12b], in data set [1], the maximum absorption wavelength is given as 621 nm and the molar extinction coefficient is on record as 22,500 M^−1cm^−1. Besides, in data set [2], the singlet oxygen yield is 22%.

Take `COCCOCCOCCOCCOCCOCCOCCC(=O)N1CCC(CNc2c(O)c3c(=O)c(Br)c(OC)c4c5c(OC)cc(=O)c6c(NCC7CCN(C(=O)CCOCCOCCOCCOCCOCCOCCOC)CC7)c(OC)c7c(c(c2C=C(C)C7C(C)=O)c34)c65)CC1` (stereo not drawn) [HB-31b-Br-PEG6]: in data set [1], the maximum absorption wavelength turned out to be 624 nm and the molar extinction coefficient was 31,500 M^−1cm^−1. Moreover, the singlet oxygen yield in data set [2] came out at 31%.

`COCCOC(=O)C1(Nc2c(NC3(C(=O)OCCOC)CC3)c3c(=O)cc(OC)c4c5c(OC)cc(=O)c6c(O)c(OC)c7c(c(c2C=C(C)C7)c34)c65)CC1` [HC-35a-PEG1]: in data set [1], the maximum absorption wavelength was determined as 622 nm and the molar extinction coefficient is recorded as 31,000 M^−1cm^−1. Further, the singlet oxygen yield in data set [2] is reported as 32%.

On to `COc1c2c3c4c(c(NCC5CCC(C(=O)O)CC5)c(=O)c5c(O)cc(OC)c(c6c(OC)cc(NCC7CCC(C(=O)O)CC7)c(c1=O)c63)c54)C=C(C)C2C(C)=O` (stereo not drawn) [HB-13d], for which, in data set [1], the maximum absorption wavelength is recorded as 621 nm and the molar extinction coefficient is 28,000 M^−1cm^−1. Further, the singlet oxygen yield in data set [2] worked out at 28%.

Regarding `COCCOCCC(=O)OCCNc1c(NCCOC(=O)CCOCCOC)c2c(=O)cc(OC)c3c4c(OC)cc(=O)c5c(O)c(OC)c6c(c(c1C=C(C)C6)c23)c54` [HC-2a-PEG1], in data set [1], the maximum absorption wavelength is given as 622 nm and the molar extinction coefficient is 30,000 M^−1cm^−1. This molecule also came in with a singlet oxygen yield in data set [2] of 30%.

With `CCNc1c2c3c4c(c(OC)c(=O)c5c(O)cc(OC)c(c6c(OC)c(SCCO)c(NC7CCCC7)c(c1=O)c36)c54)C(C(C)=O)C(C)=C2` (stereo not drawn) [HB-S-44c], in data set [1], the maximum absorption wavelength is reported as 628 nm and the molar extinction coefficient is 21,000 M^−1cm^−1. This molecule also yielded a singlet oxygen yield in data set [2] of 20%.
